Laboratory results from paper PMC10460389, “Design of 8-mer peptides that block Clostridioides difficile toxin A in intestinal cells” (Communications Biology, 2023).

Assays:
[1] = tested on: C. diff. infection; conditions: antibiotic treatment (metronidazole and vancomycin); cited from earlier work
From the text: Multiple therapeutic approaches have been developed to treat C. diff. infection. The standard practice is treatment with antibiotics (metronidazole and vancomycin), but in 20% of cases infection reoccurs. Exposure to these antibiotics alters the microbial community in the gut, facilitating colonization by C. diff[21].

[2] = tested on: small intestinal (jejunum) cells exposed to TcdA; conditions: cited from earlier work
[3] = tested on: TcdA GTD catalytic site; conditions: cited from earlier work
[4] = tested on: TcdA GTD; conditions: 0.5 μM UDP-Glucose-Fluorescein 15 min; vs no-TcdA-AF594 no-UDP-Glucose-Fluorescein control RP(-T -U) for SA1; two-tailed T-test
Experimental: For the bead-based assay, statistical analyses were performed using a two-tailed T-test in conjunction with the RP (-T) control. Significance was determined at p < 0.05. […] Approximately 40 beads were imaged for each sample, with images containing out-of-focus beads or bead aggregates being excluded. […] Each SPR sensor was used to run two samples across two separate channels, leading to a total of 14 measurements. However, one measurement was excluded due to the loss of a stable signal.

Molecule | cases in which infection reoccurs [1] | neutralization of TcdA in jejunum / small intestinal cells [2] | ΔGbinding [3] | change in green fluorescence from center to halo (TcdA binding) region [4]
Cc1ncc([N+](=O)[O-])n1CCO [metronidazole] | 20% | – | – | –
CN[C@H](CC(C)C)C(=O)N[C@H]1C(=O)N[C@@H](CC(N)=O)C(=O)N[C@H]2C(=O)N[C@H]3C(=O)N[C@H](C(=O)N[C@H](C(=O)O)c4cc(O)cc(O)c4-c4cc3ccc4O)[C@H](O)c3ccc(c(Cl)c3)Oc3cc2cc(c3O[C@@H]2O[C@H](CO)[C@@H](O)[C@H](O)[C@H]2O[C@H]2C[C@](C)(N)[C@H](O)[C@H](C)O2)Oc2ccc(cc2Cl)[C@H]1O [vancomycin] | 20% | – | – | –
DGWIQHYKHR [NPC, computationally designed 10-mer peptide from previous work] | – | neutralized toxin A in jejunum cells | -6.15 | –
GMFWQHRRHD [NPB, computationally designed 10-mer peptide from previous work] | – | neutralized toxin A in jejunum cells | -11.35 | –
HEWGRRHN [SA7] | – | – | – | All peptides except SA7 showed a significant (p < 0.005) decrease in green fluorescence
